# Laboratory results as given in patent US11439708B2, “Nanotube trans-membrane channels mimicking biological porins” (LAWRENCE LIVERMORE NATIONAL SECURITY, LLC, priority 2014, dated 2022).
# Columns and labels:
# [1] = Single channel recordings of conductance in supported lipid bilayer; type: biochemical; details: 1 M KCl, transmembrane potential 75 mV, positive control
# [2] = parameters: unit not given here; details: literature value (ref 30); cited from earlier work
substance,measurement,setting,value
gramicidin A,conductance of Gramicidin channels,[1],0.058±0.008 nS
same,reported conductance of gramicidin,[2],0.0459±0.005
